Measurements from patent publication US8097269B2, “Bioactive material delivery systems comprising sol-gel compositions” (Celonova Biosciences, Inc., priority 2004, dated 2012).

Key:
[1] = Elution of DAA-I from stents coated with increasing amounts of TEOS; type: physicochemical; details: 0.1-0.5M TEOS with constant DAA-I 1.25 mg/mL; effect of increasing TEOS to drug molar ratio; 9 mm stents; FIGS. 5A-5B
Experimental: To explore the effects of increasing the amount of TEOS on the rate of elution of DAA-I, increasing amounts, from 0.1-0.5M of TEOS were added to a constant amount of DAA-I (1.25 mg/mL) according to the methods and protocols described above. The stents (9 mm, n=4) were sprayed with each of the solutions as described above, weighed, and the amounts DAA-I eluted over a 24 hour period were compared.

[2] = pH 5
Experimental: Referring to FIG. 4, elution of DAA-I from the TEOS coated stents was measured by analyzing the amount of DAA-I found in 0.1% solutol in ammonium acetate buffer, pH 5.0, as a function of time, when the stents were incubated in this medium at 37° C. The amount of DAA-I was determined by integrating the DAA-I peak in high performance liquid chromatography (HPLC) profiles using a Altima C-8 column (Altech, Chicago Ill.) and comparison to standard curves.

- rate of DAA-I elution [2]: slow the rate of DAA-I elution
Substance: des-aspartate angiotensin I [DAA-I]
- rate of release of the drug into aqueous solution [1]: significantly delayed the rate of release
